# Counter-ions that a name gives are not always drawn.
# Assay: Octanol/water partition coefficient (O/W coefficient) of the second component
# Conditions: 1-octanol/water 1/1 by mass; value of the second component species
# Protocol: In this context, the octanol/water partition coefficient is a value calculated through the following.
# A sample is dissolved in a mixture of octanol and water in a ratio by mass of 1/1, and the concentration of the substance in the octanol (Co) and the concentration of the substance in the water (Cw) are measured; then the octanol/water partition coefficient (O/W coefficient) is calculated according to equation (1) below.
# O/W coefficient=Log(Co/Cw) (1)
# The concentration of the substance in the octanol (Co) and the concentration of the substance in the water (Cw) are measured as follows.
# The OECD test guideline is followed. More specifically, a sample is dissolved in a mixture of 1-octanol and water in a ratio by mass of 1/1, and the resulting solution is centrifuged until it completely separates into two layers. From the 1-octanol layer, an appropriate amount of octanol solution is pipetted. The tip of a syringe, into which air has been drawn in advance, is inserted into the water layer through the 1-octanol layer while the air is ejected, and the aqueous solution is sampled quickly.
# For each solution, the test concentration is determined using an ion chromatograph (Metrohm, 930 Compact IC).
row,SMILES,Second component Octanol/water partition coefficient
1,"CCCCCCCC/C=C\CCCCCCCC(=O)N(CCO)CCO [Add1, oleic acid diethanolamide]",6
2,"CCCCCCCCCCCCCCCCCC(=O)N(CCO)CCO [Add21, stearic acid diethanolamide]",11
3,"CCCCCCCCCCCC(=O)NCC(C)O (stereo not shown) [Add22, lauric acid monoisopropanolamide]",4
4,"CCCCCCC(CCCC)(CCCC)Cc1ccc(O)cc1 [Add33, 4-2,2-dibutyl-octylphenol]",21

# Same assay, conditions: 1-octanol/water (1/1 by mass)
row,logP,SMILES
1,0.9,"CCOC(=O)CC(O)(CC(=O)OCC)C(=O)OCC [Add10, triethyl citrate, reference compound]"
2,4,"CC(C)COC(=O)CCCCC(=O)OCC(C)C [Add11, diisobutyl adipate, reference compound]"

row,SMILES,logP
1,"CCCCCCCCCCCCc1ccc(O)cc1 [Add32, 4-dodecylphenol]",5

# — patent US20230250262A1, “CELLULOSIC PARTICLE” (FUJIFILM Business Innovation Corp., priority 2022, published 2023)
